The target of the assay is T1, Axl (Homo sapiens, UniProt P30530).
T1 construct: endogenous in cells; host or cells: HeLa cells
T1 sequence (P30530 26-894): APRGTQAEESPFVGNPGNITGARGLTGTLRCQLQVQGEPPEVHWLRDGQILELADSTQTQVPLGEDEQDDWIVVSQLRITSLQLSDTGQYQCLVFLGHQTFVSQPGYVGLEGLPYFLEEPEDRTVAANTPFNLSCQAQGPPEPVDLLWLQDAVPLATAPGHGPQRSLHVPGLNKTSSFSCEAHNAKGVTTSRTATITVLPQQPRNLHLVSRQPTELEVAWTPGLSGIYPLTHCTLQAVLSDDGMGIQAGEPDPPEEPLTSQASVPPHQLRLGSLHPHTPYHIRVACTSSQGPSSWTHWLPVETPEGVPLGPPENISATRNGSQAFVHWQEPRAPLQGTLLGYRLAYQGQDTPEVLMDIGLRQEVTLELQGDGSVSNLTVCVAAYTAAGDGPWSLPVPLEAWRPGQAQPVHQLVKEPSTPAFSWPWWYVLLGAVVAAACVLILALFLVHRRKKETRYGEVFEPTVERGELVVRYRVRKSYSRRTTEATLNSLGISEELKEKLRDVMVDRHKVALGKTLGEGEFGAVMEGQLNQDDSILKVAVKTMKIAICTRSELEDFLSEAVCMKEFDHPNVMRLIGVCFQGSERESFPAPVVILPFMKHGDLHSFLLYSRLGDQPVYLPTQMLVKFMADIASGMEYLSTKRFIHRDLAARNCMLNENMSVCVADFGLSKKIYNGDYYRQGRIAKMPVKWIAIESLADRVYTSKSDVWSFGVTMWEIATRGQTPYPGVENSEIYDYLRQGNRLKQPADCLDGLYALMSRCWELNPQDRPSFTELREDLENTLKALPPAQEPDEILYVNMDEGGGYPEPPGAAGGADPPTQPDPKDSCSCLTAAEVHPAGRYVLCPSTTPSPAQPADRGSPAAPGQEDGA
The assay can be described thus: Phospho-Akt In-Cell Western Assay (inhibition of Axl activity after Axl-antibody cross-linking). The settings on record: read-out: IC50. The format is cell-based. In a few lines:
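HeLa cells on poly-L-lysine, starved 24 h in 0.5% FCS DMEM with Axl/Fc 500 ng/mL, pre-treated with compound 1 h at 37 °C, then stimulated 5 min by anti-Axl/anti-mouse antibody cross-linking. Fixed cells probed for phospho-Akt with HRP secondary and chemiluminescent detection.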

Where [1] appears, read: Hela cells, phospho-Akt chemiluminescence normalized to relative cell number, compounds of formula (Ia), Table 1.
The mark [2] stands for this setting: Hela cells, phospho-Akt chemiluminescence normalized to relative cell number, compounds of formula (Ib), Table 2.
Setting [3] is: inhibition of Axl activity, Table 1, compounds of formula (Ia).

Our source for the IC50 values is US7709482B2, “Polycyclic heteroaryl substituted triazoles useful as Axl inhibitors” (Rigel Pharmaceuticals, Inc., priority 2006, dated 2010).

Like-named read-outs stand apart in the source and are kept apart here. Bounds are passed on as bounds.

As a reminder, the IC50 is the concentration that gives 50% inhibition. As to `CN1CCC(c2ccc(Nc3nc(N)n(-c4cc5c(nn4)-c4ccccc4CCC5)n3)cc2)CC1` [Compound 99, 1-(6,7-dihydro-5H-benzo[6,7]cyclohepta[1,2-c]pyridazin-3-yl)-N^3-(4-(methylpiperidin-4-yl)phenyl)-1H-1,2,4-triazole-3,5-diamine], the IC50 under setting [1] is under 1000 nM. Consider `Nc1nc(Nc2ccc(N3CC[C@H]4CCCC[C@@H]4C3)c(F)c2)nn1-c1cc2c(nn1)-c1ccccc1SCC2` [Compound 126, 1-(6,7-dihydro-5H-benzo[2,3]thiepino[4,5-c]pyridazin-3-yl)-N^3-(3-fluoro-4-((4aR,8aS)-decahydroisoquinolin-2-yl)phenyl)-1H-1,2,4-triazole-3,5-diamine], for which the IC50 under setting [1] is over 20000 nM. Same read-out and setting: the result for `COc1ccc2c(c1)CCCc1cc(-n3nc(Nc4ccc(OCCN5CCCC5)c(F)c4)nc3N)nnc1-2` [Compound 56, 1-(6,7-dihydro-5H-9-methoxybenzo[6,7]cyclo-hepta[1,2-c]pyridazin-3-yl)-N^3-(3-fluoro-4-(2-(pyrrolidin-1-yl)ethoxy)phenyl)-1H-1,2,4-triazole-3,5-diamine] reads 1000 to 10000 nM. On the same count and under the same terms, under `Nc1nc(Nc2ccc3c(c2)NC(=O)CCC3)nn1-c1cc2c(nn1)-c1ccccc1CCC2` [Compound 11, 1-(6,7-dihydro-5H-benzo[6,7]cyclohepta[1,2-c]pyridazin-3-yl)-N^3-(4,5-dihydro-1H-benzo[b]azepin-2(3H)-on-8-yl)-1H-1,2,4-triazole-3,5-diamine] stands under 1000 nM; under `Nc1nc(Nc2ccc(N3CC(N4CCCC4)C3)c(F)c2)nn1-c1cc2c(nn1)-c1ccccc1CCC2` [Compound 113, 1-(6,7-dihydro-5H-benzo[6,7]cyclohepta[1,2-c]pyridazin-3-yl)-N^3-(3-fluoro-4-(3-pyrrolidin-1-ylazetidinyl)phenyl)-1H-1,2,4-triazole-3,5-diamine], under 1000 nM.

`CN1CCN(c2ccc(Nc3nc(N)n(C4=Nc5ccccc5Sc5ccccc54)n3)cc2)CC1` [Compound 50, 1-((Z)-dibenzo[b,f][1,4]thiazepin-11-yl)-N^3-(4-(N-methylpiperazin-1-yl)phenyl)-1H-1,2,4-triazole-3,5-diamine]: the IC50 under setting [1] was 1000 to 10000 nM. Take `CN1CCN(c2ccc(Nc3nc(N)n(-c4cc5c(nn4)-c4ccccc4CCC5)n3)cc2F)CC1c1ccccc1` (stereo not shown) [Compound 5, 1-(6,7-dihydro-5H-benzo[6,7]cyclohepta[1,2-c]pyridazin-3-yl)-N^3-(3-fluoro-4-(4-methyl-3-phenylpiperazin-1-yl)phenyl)-1H-1,2,4-triazole-3,5-diamine]: under setting [1], the IC50 is over 20000 nM. The same measure, in the same setting: under `Nc1nc(Nc2ccc(N3CCN(C4CC5CCC4C5)CC3)cc2)nn1-c1ncnc2c1CCCc1ccccc1-2` (stereo not shown) [Compound 38, 1-(6,7-dihydro-5H-benzo[6,7]cyclohepta[1,2-d]pyrimidin-4-yl)-N3-(4-(4-(bicyclo[2.2.1]heptan-2-yl)piperazin-1-yl)phenyl)-1H-1,2,4-triazole-3,5-diamine] stands under 1000 nM; under `Nc1nc(Nc2ccc(N3CCC(N4CCCC4)CC3)c(Cl)c2)nn1-c1cc2c(nn1)-c1ccccc1CCC2` [Compound 62, 1-(6,7-dihydro-5H-benzo[6,7]cyclohepta[1,2-c]pyridazin-3-yl)-N^3-(3-chloro-4-(4-pyrrolidin-1-yl-piperidin-1-yl)phenyl)-1H-1,2,4-triazole-3,5-diamine], under 1000 nM. As to `Cc1cc(Nc2nc(N)nn2-c2cc3c(nn2)-c2ccccc2CCC3)cnc1N1CCC(N2CCCC2)CC1` [Compound 173, 1-(6,7-dihydro-5H-benzo[6,7]cyclohepta[1,2-c]pyridazin-3-yl)-N^5-(6-(4-(pyrrolidin-1-yl)piperidin-1-yl)-5-methylpyridin-3-yl)-1H-1,2,4-triazole-3,5-diamine], under setting [2], the IC50 fell in the range of 1000 to 10000 nM. Take `Nc1nc(Nc2ccc(N3CCC(N4CCCC4)CC3)c(F)c2)nn1-c1cc(-c2ccccc2)c2c(n1)-c1ccccc1CCC2` [Compound 238, 1-(4-phenyl-6,7-dihydro-5H-benzo[6,7]cyclohepta[1,2-b]pyridin-2-yl)-N^3-(3-fluoro-4-(4-pyrrolidin-1-ylpiperidin-1-yl)phenyl)-1H-1,2,4-triazole-3,5-diamine]: the IC50 under setting [3] was 1000 to 10000 nM. `CN1CCC(N2CCc3ccc(Nc4nc(N)nn4-c4cc5c(nn4)-c4ccccc4CCC5)cc3C2)CC1` [Compound 245, 1-(6,7-dihydro-5H-benzo[6,7]cyclohepta[1,2-c]pyridazin-3-yl)-N^5-(2-(1-methylpiperidin-4-yl)-1,2,3,4-tetrahydroisoquinolin-7-yl)-1H-1,2,4-triazole-3,5-diamine]: under setting [2], the IC50 was 1000 to 10000 nM. For the compound `Nc1nc(Nc2ccc3c(c2)CCC(O)CC3)nn1-c1cc2c(nn1)-c1ccccc1CCC2` (stereo not shown) [Compound 226, 1-(6,7-dihydro-5H-benzo[6,7]cyclohepta[1,2-c]pyridazin-3-yl)-N^3-(7-hydroxy-6,7,8,9-tetrahydro-5H-benzo[7]annulene-2-yl)-1H-1,2,4-triazole-3,5-diamine], under setting [3], the IC50 is under 1000 nM. As to `Nc1nc(Nc2ccc(OCCN3CCCC3)cc2)nn1-c1ncnc2c1CCCc1ccccc1-2` [Compound 37, 1-(6,7-dihydro-5H-benzo[6,7]cyclohepta[1,2-d]pyrimidin-4-yl)-N^3-(4-(2-(pyrrolidin-1-yl)ethoxy)phenyl)-1H-1,2,4-triazole-3,5-diamine], the IC50 under setting [1] is under 1000 nM. Regarding `Nc1nc(Nc2cnc3c(c2)CC[C@H](N2CCCC2)CC3)nn1-c1cc2c(nn1)-c1ccccc1CCC2` [Compound 191, 1-(6,7-dihydro-5H-benzo[6,7]cyclohepta[1,2-c]pyridazin-3-yl)-N^3-((S)-7-(pyrrolidin-1-yl)-6,7,8,9-tetrahydro-5H-cyclohepta[b]pyridine-3-yl)-1H-1,2,4-triazole-3,5-diamine], the IC50 under setting [3] was under 1000 nM.

Regarding `CN(C1CCCC1)C1CCN(c2ccc(Nc3nc(N)n(-c4cc5c(nn4)-c4ccccc4CCC5)n3)cc2F)CC1` [Compound 82, 1-(6,7-dihydro-5H-benzo[6,7]cyclohepta[1,2-c]pyridazin-3-yl)-N^3-(3-fluoro-4-(4-(N-methyl-cyclopentylamino)-piperidinyl)phenyl)-1H-1,2,4-triazole-3,5-diamine], under setting [1], the IC50 is under 1000 nM. With `Nc1nc(Nc2cnc3c(c2)CC2(CCC3)OCCO2)n(-c2cc3c(nn2)-c2ccccc2CCC3)n1` [Compound 248, 1-(6,7-dihydro-5H-benzo[6,7]cyclohepta[1,2-c]pyridazin-3-yl)-N^5-(5,7,8,9-tetrahydrospiro[cyclohepta[b]pyridine-6,2′[1,3]dioxolane]-3-yl)-1H-1,2,4-triazole-3,5-diamine], the concentration for half-maximal inhibition (IC50) under setting [2] was over 20000 nM. Regarding `Nc1nc(Nc2ccc(N3CCN4CCCCC4C3)c(F)c2)nn1-c1cc2c(nn1)-c1ccccc1SCC2` (stereo not shown) [Compound 129, 1-(6,7-dihydro-5H-benzo[2,3]thiepino[4,5-c]pyridazin-3-yl)-N^3-(3-fluoro-4-(octahydro-1H-pyrido[1,2-a]pyrazin-2-yl)phenyl)-1H-1,2,4-triazole-3,5-diamine], the IC50 under setting [3] was under 1000 nM. As to `Nc1nc(Nc2ccc(C(=O)NCCN3CCCC3)cc2)nn1-c1cc2c(nn1)-c1ccccc1CCC2` [Compound 12, 1-(6,7-dihydro-5H-benzo[6,7]cyclohepta[1,2-c]pyridazin-3-yl)-N^3-(4-((2-pyrrolidin-1-ylethyl)aminocarbonyl)phenyl)-1H-1,2,4-triazole-3,5-diamine], the IC50 under setting [1] is under 1000 nM. On the same count and under the same terms, under `CN1CCN(c2ccc(Nc3nc(N)n(-c4ncc5c(n4)-c4ccccc4CCC5)n3)cc2)CC1` [Compound 40, 1-(6,7-dihydro-5H-benzo[6,7]cyclohepta[1,2-d]pyrimidin-2-yl)-N^3-(4-(N-methylpiperazin-1-yl)phenyl)-1H-1,2,4-triazole-3,5-diamine] stands 1000 to 10000 nM; under `Nc1nc(Nc2ccc(N3CCC(N4CCCC4)CC3)c(F)c2)nn1-c1cc2c(nn1)CCCc1ccccc1-2` [Compound 71, 1-(6,7-dihydro-5H-benzo[6,7]cyclohepta[4,5-c]pyridazin-2-yl)-N^3-(3-fluoro-4-(4-(pyrrolidinyl)piperidinyl)-phenyl)-1H-1,2,4-triazole-3,5-diamine], under 1000 nM. With `CN1CCN(C2CCN(C/C=C/c3ccc(Nc4nc(N)n(-c5cc6c(nn5)-c5ccccc5CCC6)n4)cn3)CC2)CC1` [Compound 135, 1-(6,7-dihydro-5H-benzo[6,7]cyclohepta[1,2-c]pyridazin-3-yl)-N^3-(6-(3-(4-(N-methylpiperazin-4-yl)piperidin-1-yl)-(E)-propenyl)pyridin-3-yl)-1H-1,2,4-triazole-3,5-diamine], the concentration for half-maximal inhibition (IC50) under setting [3] is under 1000 nM.
